System: S. tritici
Experiment: S. tritici infection of wheat seedlings after spraying first leaves (induced resistance)
Type: in vivo, Septoria tritici
Protocol: Wheat seedlings at the 2 leaf stage were used in the study. Plants were grown singly in pots and were split into two batches. First leaves were sprayed with pyraclostrobin at the recommended rate (first leaves of controls were sprayed with distilled water) and the plants to be used for disease assessment were inoculated with S. tritici once leaves had dried. Both first and second leaves were inoculated by spraying with a spore suspension of 1×10^5 spores/ml of distilled water containing a drop of Tween 20. Immediately after inoculation, pots were placed in water-saturated trays and covered with clear polyethene bags for 48 h. Thereafter plants were grown at 18° C. with 12 h/12 h light/dark alternation. Infection intensity was assessed 18 days after inoculation by estimating the % leaf area covered by symptoms.

## pyraclostrobin
After 18 days, compared to non treated controls
  reduced infection on first leaves: 65%
After 18 days, compared to non treated controls, only first leaves sprayed
  reduced infection on second leaves: 61%
Wheat seedlings, first leaves sprayed at the recommended rate, 18 days after inoculation, means ±SE of 10 replicates, pyraclostrobin-resistant isolate
  Infection (% leaf area showing symptoms) First leaf: 17 ± 2.3 % leaf area showing symptoms
Wheat seedlings, isolate resistant to pyraclostrobin
  reduces S. tritici infection of first and second leaves: > 60%
Wheat seedlings, only first leaves sprayed at the recommended rate, 18 days after inoculation, means ±SE of 10 replicates, pyraclostrobin-resistant isolate
  Infection (% leaf area showing symptoms) Second leaf: 16 ± 1.4 % leaf area showing symptoms

Source: US20080287426A1, “Method of Inducing Resistance to Harmful Fungi” (priority 2005, published 2008)
